In PubChem BioAssay (NCI) one finds GI50 and TGI data, which are given here for eight compounds.

What all share (test): NCI anticancer screen, dose series, 48 h
Assay [1] has as its system SNB-19 CNS.
The subject of assay [2] is DU-145 prostate.
Assay [3] relates to RXF 393 renal.
The test system of assay [4] is OVCAR-5 ovarian.
Assay [5] has as its system SK-MEL-2 melanoma.
The subject of assay [6] is HOP-92 NSCLC.
Assay [7] deals with NCI/ADR-RES ovarian.
The subject of assay [8] is OVCAR-8 ovarian.
Assay [9] relates to HS 578T breast.
Assay [10] relates to IGROV1 ovarian.

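Five concentrations, 48 hours, 96-well plates. Abbreviation: GI50, concentration required for 50% inhibition of growth. TGI is the concentration that stops growth completely.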

As for `COc1c(C(N)=O)cc(-c2ccc(Cl)cc2)cc1-c1ccc(S(N)(=O)=O)cc1`, the GI50 in [1] is 14 µM; in assay [2], 9.29 µM; in assay [3], 7.88 µM; in assay [4], 15 µM; in [5], 7.89 µM; in assay [6], 3.26 µM. The GI50 in [7] is over 17.5 µM; in assay [8], 9.33 µM; in assay [9] it was 14.4 µM; in [10], 10.4 µM. For the same compound, the TGI was over 25 µM in [1]; over 25 µM in assay [2]; over 25 µM in assay [3]; over 25 µM in assay [4]; 21 µM in assay [5]; 10.4 µM in assay [6]. Further, the TGI in assay [7] is over 25 µM; in [8], over 25 µM; in [9], 24.9 µM; in assay [10], over 25 µM.
As for `OC(c1cc(C(F)(F)F)nc2c(Cl)cc(Cl)cc12)C1CCCCN1` (configuration not stated), the TGI in assay [1] was over 52.3 µM; in assay [2], 20 µM; in assay [3], 18.8 µM; in assay [4], over 50.4 µM; in [5], over 43.8 µM; in [6], 21.9 µM. Also, the TGI was 30.2 µM in [7], 32.5 µM in [8], over 48.4 µM in assay [9] and 18.2 µM in [10].
With `CN(C(=O)C(C)(C)C)c1ccccc1I(=O)=O`, the GI50 in assay [1] was over 100 µM; in assay [2], over 100 µM; in [3], over 100 µM; in [4] it was over 100 µM; in assay [5] it was over 100 µM; in [6] it was 15.9 µM. Further, the GI50 in assay [7], in assay [8], in assay [9] and in assay [10] was over 100 µM throughout. Moreover, the TGI in assay [1] is over 100 µM; in assay [2], over 100 µM; in assay [3] it was over 100 µM; in assay [4] it was over 100 µM; in assay [5], over 100 µM; in assay [6], 96.7 µM. Further, the TGI in assay [7], in assay [8], in assay [9] and in [10] was over 100 µM throughout.
For the compound `Cc1ccc(NC(=O)COc2ccc(Cl)cc2)cc1Cl`, the TGI in [1], in assay [2], in assay [3], in [4], in assay [5] and in assay [6] was over 100 µM throughout. Moreover, the TGI in [7], in [8], in assay [9] and in assay [10] was over 100 µM each time.
In the case of `O=C1OC(OC/C(Br)=C(\Br)COC2OC(=O)C(Cl)=C2Cl)C(Cl)=C1Cl` (configuration not stated), the TGI in [1] was 34.3 µM; in assay [2] it was 28.5 µM; in [3] it was 6.1 µM; in assay [4], 30 µM; in [5], 35.9 µM; in [6], 10.7 µM. For the same compound, the TGI in assay [7] was determined as 25.2 µM; in assay [8], 13.3 µM; in assay [9], 31.7 µM; in [10] it was 26.3 µM.
For `CCOP(=O)(OCC)/C(=C/n1c(=S)[nH]c2ccccc21)C(=O)OC`, the GI50 in assay [1] and in [6] was over 100 µM each time. In addition, the TGI in assay [1], in assay [2], in [3], in assay [4], in [5] and in assay [6] was over 100 µM throughout. The TGI in assay [7], in [8], in assay [9] and in assay [10] was over 100 µM in each case.
For the compound `COC(=O)Nc1nc2ccc(C(=O)c3cccc(I)c3)cc2[nH]1`, the GI50 was 0.0625 µM in assay [1]; 0.0861 µM in assay [2]; 0.0494 µM in [3]; 0.173 µM in [4]; 1.26 µM in assay [5]; 0.0985 µM in [6]. Also, the GI50 is 0.0448 µM in assay [7], 0.132 µM in [8], 0.0904 µM in assay [9] and 0.11 µM in [10]. Further, the TGI is over 39.8 µM in [1]; 1.76 µM in assay [2]; 1.05 µM in [3]; 17 µM in assay [4]; over 72.3 µM in assay [5]; 11.7 µM in assay [6]. For the same compound, the TGI in assay [7] was 1.54 µM; in assay [8], 30.4 µM; in [9] it was 25.7 µM; in [10], 8.82 µM.
As for `COc1cc2[nH]c3c(c2cc1OC)CCN[C@@]31CC[C@@]2(CC3c4c(cc(OC)c(O)c42)CCN3C)C[C@@H]1OC` (some centres not stated), the TGI is over 100 µM in assay [1]; over 100 µM in [2]; 77.9 µM in assay [3]; over 100 µM in [4]; 40.6 µM in [5]; 69.3 µM in assay [6]. The TGI in assay [7] was over 85.1 µM; in assay [8], over 100 µM; in assay [9], over 52.5 µM; in [10], over 100 µM.
